Structures are written as SMILES.

Broadly, the melting point is the temperature of the solid-liquid transition.

`CCCCn1cnc2c(OC)nc(Nc3ccc(OCC)nc3)nc21` [compound 1, 2-[(2-Ethoxypyrid-5-yl)amino]-6-methoxy-9-butyl-9H-purine] came in with a melting point of 174 to 176 °C.

Turning to `CCCCn1cnc2c(OC)nc(Nc3ccccc3)nc21` [compound 2, 2-(Phenylamino)-6-methoxy-9-butyl-9H-purine], the melting point was 172 to 174 °C.

For `CCCCn1cnc2c(OCC)nc(Nc3ccccc3)nc21` [compound 3, 2-(Phenylamino)-6-ethoxy-9-butyl-9H-purine], the melting point was in the range of 159 to 160 °C.

`CCCCn1cnc2c(OCCC)nc(Nc3ccccc3)nc21` [compound 4, 2-(Phenylamino)-6-propoxy-9-butyl-9H-purine] yielded a melting point of 115 to 116 °C.

`CCCCn1cnc2c(OC(C)C)nc(Nc3ccccc3)nc21` [compound 5, 2-(Phenylamino)-6-isopropoxy-9-butyl-9H-purine] had a melting point of 116 to 118 °C.

Turning to `CCCCn1cnc2c(OCC(C)C)nc(Nc3ccccc3)nc21` [compound 6, 2-(Phenylamino)-6-(2-methylprop-1-oxy)-9-butyl-9H-purine], the melting point is 77 to 79 °C.

As for `CCCCn1cnc2c(OCC(F)(F)F)nc(Nc3ccccc3)nc21` [compound 7, 2-(Phenylamino)-6-(2,2,2-trifluoroethoxy)-9-butyl-9H-purine], the melting point lay within 102 to 104 °C.

With `CCCCn1cnc2c(SCC)nc(Nc3ccccc3)nc21` [compound 8, 2-(Phenylamino)-6-(ethylthio)-9-butyl-9H-purine], the melting point was 173 to 175 °C.

As for `CCCCn1cnc2c(OCC3CC3)nc(Nc3ccccc3)nc21` [compound 9, 2-(Phenylamino)-6-(cyclopropylmethoxy)-9-butyl-9H-purine], the melting point fell in the range of 124 to 126 °C.

In turn, `CCCCn1cnc2c(OCCOC)nc(Nc3ccccc3)nc21` [compound 10, 2-(Phenylamino)-6-(2-methoxyethoxy)-9-butyl-9H-purine] returned a melting point of 129 to 131 °C.

As for `CCCCn1cnc2c(OCCOCC)nc(Nc3ccccc3)nc21` [compound 11, 2-(Phenylamino)-6-(2-ethoxyethoxy)-9-butyl-9H-purine], the melting point was in the range of 135 to 137 °C.

`CCCCn1cnc2c(OCCO)nc(Nc3ccccc3)nc21` [compound 12, 2-(Phenylamino)-6-(2-hydroxyethoxy)-9-butyl-9H-purine] displayed a melting point of 108 to 110 °C.

Regarding `CCCCn1cnc2c(OC(C)COC)nc(Nc3ccccc3)nc21` (stereo not shown) [compound 13, 2-(Phenylamino)-6-(1-methyl-2-methoxyethoxy)-9-butyl-9H-purine], the melting point is 96 to 98 °C.

As to `CCCCn1cnc2c(OCc3ccccc3)nc(Nc3ccccc3)nc21` [compound 14, 2-(Phenylamino)-6-benzyloxy-9-butyl-9H-purine], the melting point was in the range of 163 to 164 °C.

Compound `CCCCn1cnc2c(OCc3ccccn3)nc(Nc3ccccc3)nc21` [compound 15, 2-(Phenylamino)-6-(pyrid-2-ylmethoxy)-9-butyl-9H-purine] came in with a melting point of 136 to 138 °C.

Turning to `CCCCn1cnc2c(OCc3cccnc3)nc(Nc3ccccc3)nc21` [compound 16, 2-(Phenylamino)-6-(pyrid-3-ylmethoxy)-9-butyl-9H-purine], the melting point was in the range of 206 to 207 °C.

As to `CCCCn1cnc2c(OCc3ccncc3)nc(Nc3ccccc3)nc21` [compound 17, 2-(Phenylamino)-6-(pyrid-4-ylmethoxy)-9-butyl-9H-purine], the melting point fell in the range of 136 to 139 °C.

In turn, `CCCCn1cnc2c(OCc3cccs3)nc(Nc3ccccc3)nc21` [compound 18, 2-(Phenylamino)-6-(thien-2-ylmethoxy)-9-butyl-9H-purine] had a melting point of 170 to 172 °C.

The compound `CCCCn1cnc2c(Oc3ccccc3)nc(Nc3ccccc3)nc21` [compound 19, 2-(Phenylamino)-6-phenoxy-9-butyl-9H-purine] returned a melting point of 124 to 125 °C.

For `COc1nc(Nc2ccccc2)nc2c1ncn2CCCO` [compound 21, 2-(Phenylamino)-6-methoxy-9-(3-hydroxypropyl)-9H-purine], the melting point fell in the range of 90 to 94 °C.

In turn, `CCCCCn1cnc2c(OCC)nc(Nc3ccccc3)nc21` [compound 22, 2-(Phenylamino)-6-ethoxy-9-pentyl-9H-purine] yielded a melting point of 174 to 176 °C.

As for `CCCCCCn1cnc2c(OC)nc(Nc3ccccc3)nc21` [compound 23, 2-(Phenylamino)-6-methoxy-9-hexyl-9H-purine], the melting point was 158 to 160 °C.

`COc1nc(Nc2ccccc2)nc2c1ncn2CCC(C)C` [compound 24, 2-(Phenylamino)-6-methoxy-9-(3-methylbutyl)-9H-purine] returned a melting point of 167 to 169 °C.

For the compound `COc1nc(Nc2ccccc2)nc2c1ncn2Cc1ccccc1` [compound 25, 2-(Phenylamino)-6-methoxy-9-benzyl-9H-purine], the melting point was in the range of 165 to 167 °C.

`CCCCn1cnc2c(OC)nc(Nc3ccc(F)cc3)nc21` [compound 27, 2-[(4-Fluorophenyl)amino]-6-methoxy-9-butyl-9H-purine] came in with a melting point of 185 to 187 °C.

`CCCCn1cnc2c(OCCOC)nc(Nc3ccc(F)cc3)nc21` [compound 28, 2-[(4-Fluorophenyl)amino]-6-(2-methoxyethoxy)-9-butyl-9h-purine] had a melting point of 165 to 166 °C.

Consider `CCCCn1cnc2c(OCCOC(C)C)nc(Nc3ccc(F)cc3)nc21` [compound 29, 2-[(4-Fluorophenyl)amino]-6-(2-isopropoxyethoxy)-9-butyl-9H-purine], for which the melting point lay within 116 to 118 °C.

Turning to `CCCCn1cnc2c(OCCOCCC)nc(Nc3ccc(F)cc3)nc21` [compound 30, 2-[(4-Fluorophenyl)amino]-6-(2-prop-1-oxyethoxy)-9-butyl-9H-purine], the melting point was in the range of 149 to 150 °C.

Turning to `CCCCn1cnc2c(OCCCOCC)nc(Nc3ccc(F)cc3)nc21` [compound 31, 2-[(4-Fluorophenyl)amino]-6-(3-ethoxyprop-1-oxy)-9-butyl-9H-purine], the melting point lay in the range of 95 to 97 °C.

Take `CCCCn1cnc2c(OCCC(C)C)nc(Nc3ccc(F)cc3)nc21` [compound 32, 2-[(4-Fluorophenyl)amino]-6-(3-methylbut-1-oxy)-9-butyl-9H-purine]: the melting point lay in the range of 88 to 90 °C.

On to `CCCCn1cnc2c(Oc3ccccc3)nc(Nc3ccc(F)cc3)nc21` [compound 33, 2-[(4-Fluorophenyl)amino]-6-phenoxy-9-butyl-9H-purine], for which the melting point was in the range of 171 to 172 °C.

Turning to `CCCCn1cnc2c(Oc3ccccc3F)nc(Nc3ccc(F)cc3)nc21` [compound 34, 2-[(4-Fluorophenyl)amino]-6-(2-fluorophenoxy)-9-butyl-9H-purine], the melting point lay within 155 to 157 °C.

Regarding `CCCCn1cnc2c(Oc3cccc(OC)c3)nc(Nc3ccc(F)cc3)nc21` [compound 35, 2-[(4-Fluorophenyl)amino]-6-(3-methoxyphenoxy)-9-butyl-9H-purine], the melting point lay within 185 to 187 °C.

`CCCCn1cnc2c(Oc3ccc(OCC)cc3)nc(Nc3ccc(F)cc3)nc21` [compound 36, 2-[(4-Fluorophenyl)amino]-6-(4-ethoxyphenoxy)-9-butyl-9H-purine] gave a melting point of 138 to 140 °C.

The record behind these values is patent US6414147B1, “2-amino-9-alkylpurines: GABA brain receptor ligands” (Neurogen Corporation, priority 1998, dated 2002).
